Experiment: clinical
Design: species or system human
Conditions: in vivo
Text: Objectives: to investigate the metabolic pathways of paliperidone and excretion of paliperidone and its metabolites in healthy adult male subjects, both CYP2D6 poor and extensive metabolizers, after administration of a single 1-mg oral dose of ^14C-paliperidone. In addition, to evaluate the safety and tolerability of paliperidone, as well as the relationship between genotypes (CYP2D6, CYP3A4, CYP3A5, UGT1A1, and UGT1A6) and exposure to paliperidone and its metabolites.
Methodology: Single-center, single-dose open-label study of the absorption, metabolism, and excretion (AME) of paliperidone in healthy men (3 extensive and 3 poor metabolizers based on CPY2D6 phenotype). […] Each subject received a single oral dose of ^14C-paliperidone with total radioactivity below […] (16 μCi). Blood samples for plasma pharmacokinetic profile were obtained immediately before study drug administration and 0.5, 1, 1.5, 3, 6, 12, 16, 36, 48, 72, 96, 120, 144 and 168 hours postdose. Blood samples were obtained 2, 4, 8, and 24 hours postdose for determination of ^14C in whole blood. Samples for determination of serum creatinine were obtained 2, 4, 8, and 24 hours postdose. Urine was collected immediately prior to drug administration and from 0-4, 4-8, 8-12, 12-16, 16-24, 24-36, 36-48, 48-72, 96-120, 120-144, and 144-168 hours after study drug administration. Fecal samples were colleted per each stool, once before study drug administration and in the period from 0-168 hours after study drug administration. Collections of urine and feces (per 24 hours) were to continue beyond 168 hours, to a maximum of 336 hours (Day 15) for subjects who excrete radioactivity slowly (2 latest 24-hour urine collections each >2% of total radioactive dose) or have <7 feces stool samples over the 0 to 168-hour period. ^14C radioactivity was measured in plasma, urine, and feces. Aliquots of the 0- through 24-hour urine collections were analyzed for cretinine. Plasma concentrations of paliperidone and risperidone were determined by means of a validated LC-MS/MS method. The ^14C-labeled moiety in plasma and urine was determined by liquid scintillation counting. For all plasma samples, the lower limits of quantification for paliperidone and risperidone were 0.100 ng/mL. For all plasma and urine samples the lower limits of quantification for ^14C-palieridone was 72 dpm/mL (=2.0 n g-eq/mL).
Number of Subjects (Planned and Analyzed): Six healthy men, 3 extensive and 3 poor metabolizers based on CYP2D6 phenotype were to participate in the study. Five subjects, 3 extensive and 2 poor metabolizers, received a single dose of ^14C-paliperidone, completed the study (i.e., completed all assessments through Day 8) and were considered valuable for safety (the Safety Analysis Set), as well as for pharmacokinetics.
Test Product, Dose and Mode of Administration Batch No.: Single oral 0.988-mg dose of ^14C-paliperidone, oral solution (aqueous formulation at a final concentration of 0.0984 mg/mL). Batch No.: unlabeled paliperidone oral solution: ZR076477EIA031 (manufacturing date: 23 Apr. 2003, retest date: 23 Oct. 2004): ^14C-paliperidone: 1763 (expiration date: not applicable)
Criteria for Evaluation: Pharmacokinetics: Plasma paliperidone. ^14C radioactivity and metabolite profiles were determined. Plasma Cmax, tmax, AUClast, AUC24, AUC∞, λZ, t1/2term, CL/F of ^14C and paliperidone were estimated by non-compartmental analysis. Based on the individual urine excretion data and on the serum creatinine concentrations, Ae, Ae, % dose, CLR, CLR,24h and CLer and paliperidone and CLGFR, and CLact of paliperidone were estimated. The excretion half-life of ^14C in urine was also estimated based on excretion rate-time profiles.
Statistical Methods: Pharmacokinetics: Plasma concentrations of ^14C and paliperdone as well as estimates for pharmacokinetic parameters were listed and graphically presented, and the excretion analysis of total radioactivity in plasma, urine and feces were summarized. […]

effect of genotype (CYP2D6, UGT1A1 or UGT1A6) on the plasma exposure of TR and UD: No effect of genotype | share of UD excreted by means of filtration (male, human): About 50% | CL renal (male, human, CLR): 53.1 ± 9.47 mL/min | Tmax (male, human, po): 1.33 ± 0.289 h | cumulative urinary excretion of unchanged paliperidone (male, human, po, 7 days): 59% | AUC (male, human, po, AUC24): 111 ± 22 ng·h/mL | AUC(0-inf) (male, human, po, AUC∞): 187 ng·h/mL | Cmax (male, human, po, Cmax): 8.85 ng/mL | Tmax (male, human, po, tmax): 1.3 h
Structure (SMILES): Cc1nc2n(c(=O)c1CCN1CCC(c3noc4cc(F)ccc34)CC1)CCCC2O (stereo not drawn) [Paliperidone, paliperidone]
